Source: patent US4988697A, “Fungicidal compositions and method” (Merck & Co., Inc., priority 1989, dated 1991)

Columns and labels:
Type in all cases: cell-based
U. zeae = test: MIC against fungal panel, U. zeae; details: read-out: MIC, Ketoconazole Alone
Description: (§1) First the MIC for the β-lactone compound and the MIC for the ketoconazole were determined against an array of organisms. Thereafter, the effects on the MIC of adding 0.031, 0.125, 0.5 and 2 μg/ml of ketoconazole were determined.

Candida albicans = test: Synergistic and fungicidal effect on exponential phase cultures (CFU/ml over time); details: ketoconazole 1 μg/ml
Description: Synergistic and fungicidal effects were determined by treating exponential phase Candida albicans cultures with β-Lactone at MIC and MFC levels and ketoconazole at 0.1 μg/ml or a 1 μg/ml alone or in combination. Exponential phase cultures were prepared by diluting an overnight culture 1:50 or 1:1000 in YNB/G. After incubating the diluted cells 7 or 17 hrs. at 37° C., the exponential phase cells were diluted in YNB/G to A600 =0.0004 u/ml to obtain 3000 cfu/ml.
10 microliters (μl) of β-lactone compound or ketoconazole prepared in DMSO was added to 1 ml of diluted exponential phase cells. The tubes were incubated at 37° C. at 250 rpm for 27 hours. Periodically, aliquots were diluted in 0.9% saline and plated on Sabouraud dextrose agar plates to determine the number of cfu/ml.

F. oxysporium = test: MIC against fungal panel, F. oxysporium; details: read-out: MIC, Ketoconazole Alone
Description: as §1

C. albicans (Y1055) = test: MIC against fungal panel, C. albicans (Y1055); details: Candida albicans, read-out: MIC, Ketoconazole Alone
Description: as §1

C. neoformans = test: MIC against fungal panel, C. neoformans; details: Cryptococcus neoformans, read-out: MIC, Ketoconazole Alone
Description: as §1

C. miyabeamis = test: MIC against fungal panel, C. miyabeamis; details: read-out: MIC, Ketoconazole Alone
Description: In a manner similar to that above described for effect against Candida albicans the synergistic effect of the combination of the β-lactone compound and ketoconazole against a fungal panel was determined by plating on potato dextrose agar.
as §1

C. albicans (Y1750) = test: MIC against fungal panel, C. albicans (Y1750); details: Candida albicans, read-out: MIC, Ketoconazole Alone
Description: as §1

A. niger = test: MIC against fungal panel, A. niger; details: Aspergillus niger, read-out: MIC, Ketoconazole Alone
Description: as §1

CC(=O)N1CCN(c2ccc(OC[C@H]3CO[C@](Cn4ccnc4)(c4ccc(Cl)cc4Cl)O3)cc2)CC1 (relative stereo) [Ketoconazole, cis-1-acetyl-4-[4-[[2-(2,4-dichlorophenyl)-2-(1H-imidazole-1-ylmethyl)-1,3-dioxolan-4-yl]methoxy]-phenyl]piperazine]
MIC (U. zeae): > 2 µg/mL
Fungal Growth (Candida albicans; Table 1, 0 hours): 2.95 × 10^3 CFU/ML
Fungal Growth (Candida albicans; Table 1, 2 hours, β-lactone 2.5 μg/ml, alone or combined): 5.1 × 10^3 CFU/ML
Fungal Growth (Candida albicans; Table 1, 4.5 hours, β-lactone 2.5 μg/ml, alone or combined): 1.09 × 10^4 CFU/ML
Fungal Growth (Candida albicans; Table 1, 7 hours, β-lactone 2.5 μg/ml, alone or combined): 2.40 × 10^4 CFU/ML
Fungal Growth (Candida albicans; Table 1, 11 hours, β-lactone 2.5 μg/ml, alone or combined): 6.90 × 10^4 CFU/ML
Fungal Growth (Candida albicans; Table 1, 17 hours, β-lactone 2.5 μg/ml, alone or combined): 1.36 × 10^5 CFU/ML
Fungal Growth (Candida albicans; Table 1, 22 hours, β-lactone 2.5 μg/ml, alone or combined): 3.30 × 10^5 CFU/ML
Fungal Growth (Candida albicans; Table 1, 27 hours, β-lactone 2.5 μg/ml, alone or combined): 7.20 × 10^5 CFU/ML
Fungal Growth (Candida albicans; Table 2, 0 hours): 2.95 × 10^3 CFU/ML
Fungal Growth (Candida albicans; Table 2, 2 hours, β-lactone 10 μg/ml, alone or combined): 5.1 × 10^3 CFU/ML
Fungal Growth (Candida albicans; Table 2, 4.5 hours, β-lactone 10 μg/ml, alone or combined): 1.09 × 10^4 CFU/ML
Fungal Growth (Candida albicans; Table 2, 7 hours, β-lactone 10 μg/ml, alone or combined): 2.40 × 10^4 CFU/ML
Fungal Growth (Candida albicans; Table 2, 11 hours, β-lactone 10 μg/ml, alone or combined): 6.90 × 10^4 CFU/ML
Fungal Growth (Candida albicans; Table 2, 17 hours, β-lactone 10 μg/ml, alone or combined): 1.36 × 10^5 CFU/ML
Fungal Growth (Candida albicans; Table 2, 22 hours, β-lactone 10 μg/ml, alone or combined): 3.30 × 10^5 CFU/ML
Fungal Growth (Candida albicans; Table 2, 27 hours, β-lactone 10 μg/ml, alone or combined): 7.20 × 10^5 CFU/ML
MIC (F. oxysporium): > 2 µg/mL
MIC (C. albicans (Y1055)): > 2 µg/mL
MIC (C. neoformans): > 2 µg/mL
MIC (C. miyabeamis): 2 µg/mL
MIC (C. albicans (Y1750)): > 2 µg/mL
MIC (A. niger): > 2 µg/mL
